# Patent EP0906100B1, “USE OF 5-HT 1A? RECEPTOR ANTAGONISTS FOR THE TREATMENT OF URINARY INCONTINENCE” (RECORDATI S.A., priority 1996, dated 1997)
# Like-named read-outs stand apart in the source and are kept apart here.
# How the values were obtained:
# α1-adrenergic receptor = assay: [3H]prazosin binding (α1-receptors), rat cerebral cortices; settings: 0.35 nM [3H]prazosin, read-out: Binding affinity for the α1-adrenergic receptor, Ki
# Experimental: [^3H]prazosin binding (α1-receptors):
# Rat cerebral cortices were homogenized in 50 volumes of ice-cold 50 mM Tris-HCl pH 7.4. The homogenates were centrifuged at 48,000 x g for 10 minutes, and the pellets were resuspended in the same volume of ice-cold buffer, centrifuged, and resuspended two more times. The final pellets were resuspended in 100 volumes of 50 mM Tris-HCl, pH 7.4, containing 0.1 % ascorbic acid and 10 µM pargyline. […] Non-specific binding was determined in the presence of 10 µM phentolamine. The incubations were terminated by rapid filtration through Whatman GF/B filters using a Brandel cell harvester, after which the filters were washed with 3x3 ml of ice-cold buffer. The radioactivity retained on the filters was determined by liquid scintillation counting.
# [1] = system: cystometric parameters (bladder volume capacity, micturition pressure); assay: Cystometric parameters (BVC, MP) in the conscious rat; type: in vivo, rats; settings: for BVC before treatment / MP before treatment: baseline; for BVC before treatment / MP before treatment / BVC after treatment / MP after treatment: mean±S.E.; for effect on MP (in words) / effect on BVC (in words): NAN-190 up to the highest administrable dose of 300 µg/kg; for ED50: Rattus norvegicus, read-out: approximate ED50 value, reduction of MP
# Experimental: Male Sprague Dawley rats (Crl: CD° BR) weighing 250-350 g were used. The animals were housed with free access to food and water and maintained on a forced 12 h alternating light-dark cycle at 22-24°C for at least one week, except during performance of the experiment.
# An approximately 10 mm long midline incision was made in the shaved and cleaned abdominal wall. The urinary bladder was gently freed from adhering tissues, emptied, and then cannulated, via an incision at the dome, with a polyethylene cannula (Portex PP30), which was permanently sutured with silk thread. The cannula was exteriorized through a subcutaneous tunnel in the retroscapular area, where it was connected with a plastic adapter to avoid the risk of removal by the animal. For intravenous (i.v.) injection of test compounds, a PE 50 polyethylene tubing filled with physiological saline was inserted into the jugular vein and exteriorized in the retroscapular area.
# Since cystometrographic parameters have been reported to be influenced by the time elapsed after catheter implantation […].
# On the day of the experiment, the rats were placed in Bollman's cages; after a stabilization period of 20 min, the free tip of the bladder catheter was connected through a T-shaped tube to a pressure transducer (Bentley T 800/Marb P 82) and to a peristaltic pump (Gilson minipuls 2) for a continuous infusion, at the constant rate of 0.1 ml/min, of saline solution into the urinary bladder. The intraluminal pressure signal during infusion was continuously recorded on a polygraph (Battaglia Rangoni KO 380 with ADC1/T amplifier). Two urodynamic parameters were evaluated: bladder volume capacity (BVC) and micturition pressure (MP). BVC (in ml) is defined as the minimum volume infused after which detrusor contraction (followed by micturition) occurs. MP (in mmHg) is defined as the maximal intravesical pressure induced by the contraction of detrusor during micturition. Basal BVC and MP values were calculated as the means of the first two recorded cystometrograms. At this point, the infusion was interrupted and the test compounds were administered. Fifteen minutes after intravenous administration, or one hour after oral drug administration, two additional cystometrograms were recorded in each animal and the mean values of the two cystometrographic parameters were calculated.
# The statistical significance of the differences in urodynamic parameter values was evaluated by Student's t test for paired data. Only changes showing a probability P<0.01 were considered to be significant.
# [2] = 100 µg/kg i.v., 15 min after injection
# [3] = 300 µg/kg i.v., 15 min after injection
# [4] = 1000 µg/kg i.v., 15 min after injection
# [5] = 1 mg/kg p.o., 1 hour after oral administration
# [6] = 2000 µg/kg i.v., 15 min after injection
# [7] = 3 mg/kg p.o., 1 hour after oral administration
# [8] = 10 mg/kg p.o., 1 hour after oral administration
# [9] = 30 µg/kg i.v., 15 min after injection
# [10] = 30 mg/kg p.o., 1 hour after oral administration
smiles,measurement,setting,value
"COc1ccccc1N1CCN(CCN(C(=O)C2CCCCC2)c2ccccn2)CC1 [Compound A, N-{2-[4-(2-methoxyphenyl)-1-piperazinyl]-ethyl}-N-(2-pyridyl)-cyclohexanecarboxamide]",Ki,α1-adrenergic receptor,0.295 µM
same,BVC before treatment,[1]; 100 µg/kg i.v. group,0.65 ± 0.06 mL
same,MP before treatment,[1]; 100 µg/kg i.v. group,93.0±8.3 mmHg
same,BVC % change,[1]; [2],+4%
same,MP % change,[1]; [2],-10%
same,BVC after treatment,[1]; [2],0.66 ± 0.08 mL
same,MP after treatment,[1]; [2],83.8±8.7 mmHg
same,BVC before treatment,[1]; 300 µg/kg i.v. group,0.47 ± 0.05 mL
same,MP before treatment,[1]; 300 µg/kg i.v. group,78.7±5.8 mmHg
same,BVC % change,[1]; [3],+32%
same,MP % change,[1]; [3],-11%
same,BVC after treatment,[1]; [3],0.63 ± 0.06 mL
same,MP after treatment,[1]; [3],70.0±4.1 mmHg
same,BVC before treatment,[1]; 1000 µg/kg i.v. group,0.64 ± 0.05 mL
same,MP before treatment,[1]; 1000 µg/kg i.v. group,104.6±6.4 mmHg
same,BVC % change,[1]; [4],+29%
same,MP % change,[1]; [4],-13%
same,BVC after treatment,[1]; [4],0.83 ± 0.07 mL
same,MP after treatment,[1]; [4],91.0±6.3 mmHg
same,BVC before treatment,[1]; 1 mg/kg p.o. group,0.52 ± 0.07 mL
same,MP before treatment,[1]; 1 mg/kg p.o. group,96.0±8.4 mmHg
same,MP % change,[1]; [5],-2%
same,BVC after treatment,[1]; [5],0.60 ± 0.08 mL
same,MP after treatment,[1]; [5],93.7±7.2 mmHg
same,BVC before treatment,[1]; 2000 µg/kg i.v. group,0.48 ± 0.04 mL
same,MP before treatment,[1]; 2000 µg/kg i.v. group,101.8±10.9 mmHg
same,BVC % change,[1]; [6],+32%
same,MP % change,[1]; [6],-20%
same,BVC after treatment,[1]; [6],0.63 ± 0.05 mL
same,MP after treatment,[1]; [6],81.5±14.1 mmHg
same,BVC before treatment,[1]; 3 mg/kg p.o. group,0.67 ± 0.07 mL
same,MP before treatment,[1]; 3 mg/kg p.o. group,112.5±6.5 mmHg
same,BVC % change,[1]; [7],+35%
same,MP % change,[1]; [7],-4%
same,BVC after treatment,[1]; [7],0.91 ± 0.10 mL
same,MP after treatment,[1]; [7],107.6±9.2 mmHg
same,BVC before treatment,[1]; 10 mg/kg p.o. group,0.54 ± 0.06 mL
same,MP before treatment,[1]; 10 mg/kg p.o. group,90.2±7.1 mmHg
same,BVC % change,[1]; [8],+37%
same,MP % change,[1]; [8],-4%
same,BVC after treatment,[1]; [8],0.73 ± 0.10 mL
same,MP after treatment,[1]; [8],86.6±7.6 mmHg
same,effect on MP (in words),"[1]; conscious rats, i.v.",inactive
"O=C(C1CCCCC1)N(CCN1CCN(c2cccc3[nH]ccc23)CC1)c1ccccn1 [Compound B, N-{2-[4-(4-Indolyl)-1-piperazinyl]-ethyl}-N-(2-pyridyl)-cyclohexanecarboxamide]",Ki,α1-adrenergic receptor,0.458 µM
"COc1ccccc1N1CCN(CCCCN2C(=O)c3ccccc3C2=O)CC1 [NAN-190, 1-(2-methoxyphenyl)-4-[4-(2-phthalimido)-butyl]-piperazine]",Ki,α1-adrenergic receptor,0.0048 µM
same,BVC before treatment,[1]; 30 µg/kg i.v. group,0.74 ± 0.09 mL
same,MP before treatment,[1]; 30 µg/kg i.v. group,99.4±10.1 mmHg
same,BVC % change,[1]; [9],+6%
same,MP % change,[1]; [9],+5%
same,BVC after treatment,[1]; [9],0.78 ± 0.10 mL
same,MP after treatment,[1]; [9],104.6±9.7 mmHg
same,BVC before treatment,[1]; 100 µg/kg i.v. group,0.68 ± 0.10 mL
same,MP before treatment,[1]; 100 µg/kg i.v. group,93.8±11.5 mmHg
same,BVC % change,[1]; [2],+12%
same,MP % change,[1]; [2],-12%
same,BVC after treatment,[1]; [2],0.76 ± 0.10 mL
same,MP after treatment,[1]; [2],82.5±9.2 mmHg
same,BVC before treatment,[1]; 300 µg/kg i.v. group,0.62 ± 0.06 mL
same,MP before treatment,[1]; 300 µg/kg i.v. group,86.6±10.3 mmHg
same,BVC % change,[1]; [3],-1%
same,MP % change,[1]; [3],+2%
same,BVC after treatment,[1]; [3],0.61 ± 0.06 mL
same,MP after treatment,[1]; [3],88.4±11.8 mmHg
same,BVC before treatment,[1]; 10 mg/kg p.o. group,0.54 ± 0.08 mL
same,MP before treatment,[1]; 10 mg/kg p.o. group,106.1±10.4 mmHg
same,BVC % change,[1]; [8],-14%
same,MP % change,[1]; [8],-14%
same,BVC after treatment,[1]; [8],0.46 ± 0.07 mL
same,MP after treatment,[1]; [8],90.8±12.5 mmHg
same,BVC before treatment,[1]; 30 mg/kg p.o. group,0.71 ± 0.09 mL
same,MP before treatment,[1]; 30 mg/kg p.o. group,105.1±10.5 mmHg
same,BVC % change,[1]; [10],-15%
same,MP % change,[1]; [10],-9%
same,BVC after treatment,[1]; [10],0.60 ± 0.09 mL
same,MP after treatment,[1]; [10],95.8±15.3 mmHg
same,effect on BVC (in words),"[1]; conscious rats, i.v.",devoid of significant effects
same,effect on MP (in words),"[1]; conscious rats, i.v.",devoid of significant effects
same,activity on cystometric parameters after oral administration (in words),"[1]; conscious rats, oral, doses up to 30 mg/kg",inactive
"CCN(CC)CC#CCOC(=O)C(O)(c1ccccc1)C1CCCCC1 (stereo not drawn) [Oxybutynin, oxybutynin]",BVC before treatment,[1]; 100 µg/kg i.v. group,0.82 ± 0.15 mL
same,MP before treatment,[1]; 100 µg/kg i.v. group,95.2±9.2 mmHg
same,BVC % change,[1]; [2],+9%
same,MP % change,[1]; [2],-19%
same,BVC after treatment,[1]; [2],0.89 ± 0.18 mL
same,MP after treatment,[1]; [2],77.4±10.3 mmHg
same,BVC before treatment,[1]; 300 µg/kg i.v. group,0.83 ± 0.13 mL
same,MP before treatment,[1]; 300 µg/kg i.v. group,82.3±8.7 mmHg
same,BVC % change,[1]; [3],0%
same,MP % change,[1]; [3],-39%
same,BVC after treatment,[1]; [3],0.83 ± 0.12 mL
same,MP after treatment,[1]; [3],50.5±6.3 mmHg
same,BVC before treatment,[1]; 1000 µg/kg i.v. group,0.94 ± 0.19 mL
same,MP before treatment,[1]; 1000 µg/kg i.v. group,110.9±10.2 mmHg
same,BVC % change,[1]; [4],+7%
same,MP % change,[1]; [4],-73%
same,BVC after treatment,[1]; [4],1.00 ± 0.18 mL
same,MP after treatment,[1]; [4],29.6±5.6 mmHg
same,BVC before treatment,[1]; 1 mg/kg p.o. group,0.56 ± 0.11 mL
same,MP before treatment,[1]; 1 mg/kg p.o. group,92.1±13.3 mmHg
same,BVC % change,[1]; [5],+31%
same,MP % change,[1]; [5],-16%
same,BVC after treatment,[1]; [5],0.74 ± 0.11 mL
same,MP after treatment,[1]; [5],77.3±9.8 mmHg
same,BVC before treatment,[1]; 3 mg/kg p.o. group,0.54 ± 0.07 mL
same,MP before treatment,[1]; 3 mg/kg p.o. group,82.1±5.1 mmHg
same,BVC % change,[1]; [7],+18%
same,MP % change,[1]; [7],-49%
same,BVC after treatment,[1]; [7],0.63 ± 0.13 mL
same,MP after treatment,[1]; [7],42.1±5.1 mmHg
same,BVC before treatment,[1]; 10 mg/kg p.o. group,0.55 ± 0.08 mL
same,MP before treatment,[1]; 10 mg/kg p.o. group,98.3±9.0 mmHg
same,BVC % change,[1]; [8],+27%
same,MP % change,[1]; [8],-68%
same,BVC after treatment,[1]; [8],0.70 ± 0.11 mL
same,MP after treatment,[1]; [8],31.8±3.9 mmHg
same,ED50,"[1]; iv, conscious rats, i.v.",~0.4 mg/kg
same,ED50,"[1]; conscious rats, oral administration",~4 mg/kg
same,effect on BVC (in words),"[1]; conscious rats, i.v.",inactive
